Measurements as given in paper PMC4928094, “The first characterization of multidrug and toxin extrusion (MATE/SLC47) proteins in zebrafish (Danio rerio)” (Scientific Reports, 2016).
Where two headings read alike, the source gives them in different places.

Legend:
[1] = target: zebrafish Mate4 (Danio rerio, UniProt U3Q0C3); test: DAPI inhibition assay, Mate4; format: cell-based
Experimental: (§1) HEK293T cells were transiently transfected as described previously[31] using the PEI (polyethyleneimine) reagent in 48-well plates. Cells were in parallel transfected with pcDNA3.1/His/LacZ plasmid and transfection efficiency was evaluated 24 h after transfection with the LacZ staining protocol.
(§2) HEK293T cells overexpressing respective single zebrafish Mate transporter were used for further experiments. […] DAPI fluorescence was measured at 360 and 460 nm […], respectively. The uptake into vector-transfected HEK293T cells (mock cells) was subtracted to obtain transporter-specific uptake.
(§3) Inhibition assays using DAPI as a fluorescent substrate were performed in the same transport medium. […] Compounds tested for interaction were checked using at least four concentrations but only a representative concentration (with the highest response or the largest concentration in solubility range) is shown.
(§4) For the purpose of IC50 calculations, data were fitted to the sigmoidal four-parameter dose-response model (variable slope),

[2] = target: zebrafish Mate6 (Danio rerio, UniProt A1L2E7); test: DAPI inhibition assay, Mate6; format: cell-based
Sequence of zebrafish Mate6 (A1L2E7 entry or part of it): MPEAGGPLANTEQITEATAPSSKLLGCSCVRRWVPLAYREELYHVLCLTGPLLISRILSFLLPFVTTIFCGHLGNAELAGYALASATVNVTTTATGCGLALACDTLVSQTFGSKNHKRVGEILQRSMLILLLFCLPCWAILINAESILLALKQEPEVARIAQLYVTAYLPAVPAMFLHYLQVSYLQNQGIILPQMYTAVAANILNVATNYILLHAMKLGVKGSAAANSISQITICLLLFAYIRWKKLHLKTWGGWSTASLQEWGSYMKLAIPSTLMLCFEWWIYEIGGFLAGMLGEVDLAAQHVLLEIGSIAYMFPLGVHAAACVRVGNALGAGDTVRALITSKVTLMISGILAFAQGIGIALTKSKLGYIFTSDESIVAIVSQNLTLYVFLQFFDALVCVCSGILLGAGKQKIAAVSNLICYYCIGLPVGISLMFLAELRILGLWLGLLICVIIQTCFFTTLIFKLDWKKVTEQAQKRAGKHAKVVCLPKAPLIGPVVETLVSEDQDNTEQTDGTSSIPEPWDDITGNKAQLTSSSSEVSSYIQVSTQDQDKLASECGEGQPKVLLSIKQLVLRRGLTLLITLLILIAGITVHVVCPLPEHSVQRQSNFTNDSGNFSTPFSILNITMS
Experimental: as §1, §2, §3, §4

[3] = target: zebrafish Mate7 (Danio rerio, UniProt U3PTD6); test: DAPI inhibition assay, Mate7; format: cell-based; conditions: for interaction strength: Mate7, class by IC50 of DAPI uptake inhibition
Sequence of zebrafish Mate7 (U3PTD6 entry or part of it): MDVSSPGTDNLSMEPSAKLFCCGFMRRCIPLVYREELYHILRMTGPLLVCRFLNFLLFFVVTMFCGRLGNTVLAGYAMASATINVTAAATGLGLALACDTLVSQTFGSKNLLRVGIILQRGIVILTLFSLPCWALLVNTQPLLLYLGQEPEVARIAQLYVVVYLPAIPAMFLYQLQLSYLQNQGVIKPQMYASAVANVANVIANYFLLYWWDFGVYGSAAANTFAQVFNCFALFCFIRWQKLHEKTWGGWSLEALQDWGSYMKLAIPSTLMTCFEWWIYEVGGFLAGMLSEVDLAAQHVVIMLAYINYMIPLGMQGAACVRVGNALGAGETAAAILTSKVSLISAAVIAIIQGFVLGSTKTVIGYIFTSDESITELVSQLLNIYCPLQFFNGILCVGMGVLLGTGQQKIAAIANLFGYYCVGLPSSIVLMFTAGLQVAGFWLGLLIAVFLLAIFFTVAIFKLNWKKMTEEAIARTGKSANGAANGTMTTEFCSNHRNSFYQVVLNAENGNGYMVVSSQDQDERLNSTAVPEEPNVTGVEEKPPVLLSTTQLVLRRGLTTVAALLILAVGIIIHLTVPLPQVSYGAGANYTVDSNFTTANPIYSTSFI
Experimental: as §1, §2, §3, §4

[4] = target: zebrafish Mate8 (Danio rerio, UniProt A0A8M6YZ09); test: DAPI inhibition assay, Mate8; format: cell-based; conditions: for interaction strength: Mate8, class by IC50 of DAPI uptake inhibition
Sequence of zebrafish Mate8 (A0A8M6YZ09 entry or part of it): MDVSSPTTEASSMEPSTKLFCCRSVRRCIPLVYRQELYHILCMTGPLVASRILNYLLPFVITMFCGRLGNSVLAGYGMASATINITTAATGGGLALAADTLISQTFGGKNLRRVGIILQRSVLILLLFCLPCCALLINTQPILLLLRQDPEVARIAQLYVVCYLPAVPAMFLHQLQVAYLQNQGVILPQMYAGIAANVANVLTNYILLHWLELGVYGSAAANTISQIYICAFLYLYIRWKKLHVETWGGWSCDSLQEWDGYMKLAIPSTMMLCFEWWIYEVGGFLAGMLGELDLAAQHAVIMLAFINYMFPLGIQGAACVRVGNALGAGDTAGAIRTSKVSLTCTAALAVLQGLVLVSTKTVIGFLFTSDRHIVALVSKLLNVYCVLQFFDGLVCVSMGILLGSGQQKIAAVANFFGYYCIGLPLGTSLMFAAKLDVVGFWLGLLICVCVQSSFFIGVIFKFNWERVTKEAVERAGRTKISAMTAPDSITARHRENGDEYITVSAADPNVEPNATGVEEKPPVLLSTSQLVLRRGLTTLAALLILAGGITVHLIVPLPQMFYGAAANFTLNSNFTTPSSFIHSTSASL
Experimental: as §1, §2, §3, §4

[5] = test system: rat Mate1; conditions: rat Mate1 ref 3; cited from earlier work
[6] = test system: human MATE1; conditions: human MATE1 ref 40; cited from earlier work
[7] = test system: human MATE2; conditions: human MATE2 ref 40; cited from earlier work

Sequence of zebrafish Mate4 (U3Q0C3 entry or part of it): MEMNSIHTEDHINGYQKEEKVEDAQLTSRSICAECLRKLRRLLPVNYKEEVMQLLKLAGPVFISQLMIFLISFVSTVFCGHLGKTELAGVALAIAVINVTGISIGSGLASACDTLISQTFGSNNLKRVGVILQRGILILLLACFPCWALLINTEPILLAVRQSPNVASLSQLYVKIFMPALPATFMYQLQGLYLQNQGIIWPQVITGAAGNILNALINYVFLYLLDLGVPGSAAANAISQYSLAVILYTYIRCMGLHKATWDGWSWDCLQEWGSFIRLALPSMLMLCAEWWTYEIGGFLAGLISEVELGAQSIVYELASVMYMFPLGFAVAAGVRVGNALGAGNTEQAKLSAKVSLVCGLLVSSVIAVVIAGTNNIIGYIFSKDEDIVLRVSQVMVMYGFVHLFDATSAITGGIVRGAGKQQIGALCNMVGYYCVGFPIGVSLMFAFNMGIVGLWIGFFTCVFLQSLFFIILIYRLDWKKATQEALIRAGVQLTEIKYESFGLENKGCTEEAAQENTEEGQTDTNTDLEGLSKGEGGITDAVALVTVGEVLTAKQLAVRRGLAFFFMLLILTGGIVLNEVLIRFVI

Row | Structure (SMILES) | IC50 [1] | IC50 [2] | IC50 [3] | interaction strength [3] | IC50 [4] | interaction strength [4] | Km [5] | IC50 ([1]; read-out: IC50) | IC50 ([2]; read-out: IC50) | IC50 ([3]; read-out: IC50) | IC50 ([4]; read-out: IC50) | Km [6] | Km [7]
1 | CN/C(=N/CCSCc1nc[nH]c1C)NC#N [Cimetidine, cimetidine, reference compound] | 134 µM | 357 µM | 573 µM | weak (IC50 of 100–999 μM was classified as weak interaction) | 4.5 µM | strong (Compounds with IC50 of 1–29 μM were designated as strong interactors) | 3 µM |  |  |  |  |  | 
2 | Cc1ncc(C[n+]2csc(CCO)c2C)c(N)n1 [Thiamine, thiamine] |  |  |  | weak (IC50 of 100–999 μM was classified as weak interaction) |  | very weak (substances with IC50 above 1000 μM were considered very weak interactors) |  | 805 µM | 724 µM | 935 µM | 1900 µM | 3.5 µM | 3.9 µM
